Source: patent US10597388B2, “Pyridazinone herbicides” (FMC CORPORATION, priority 2014, dated 2020)

Columns and labels:
Test in all cases: Test C greenhouse herbicide test, pre- and postemergence
Type in all cases: in vivo
[1] = test system: foxtail, giant (giant foxtail, Setaria faberii)
How it was run: (§1)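 Two application timings: at sowing into a soil/sand blend, and on 2–18 cm seedlings in peat-vermiculite potting mix. A non-phytotoxic, surfactant-containing solvent carried the compounds. Plants were compared with controls and rated visually on 0–100 after 13–15 d.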

[2] = test system: blackgrass (Alopecurus myosuroides)
How it was run: as §1

[3] = test system: lambsquarters (Chenopodium album)
How it was run: as §1

[4] = test system: wheat (winter wheat, Triticum aestivum)
How it was run: as §1

[5] = test system: nutsedge, yellow (yellow nutsedge, Cyperus esculentus)
How it was run: as §1

corn (Zea mays) = test system: corn (Zea mays)
How it was run: as §1

[6] = test system: waterhemp (common waterhemp, Amaranthus rudis)
How it was run: as §1

[7] = test system: johnsongrass (Sorghum halepense)
How it was run: as §1

[8] = test system: velvetleaf (Abutilon theophrasti)
How it was run: as §1

soybean (Glycine max) = test system: soybean (Glycine max)
How it was run: as §1

[9] = test system: ryegrass, Italian (Italian ryegrass, Lolium multiflorum)
How it was run: as §1

[10] = test system: morningglory (Ipomoea coccinea)
How it was run: as §1

[11] = test system: galium (catchweed bedstraw, Galium aparine)
How it was run: as §1

[12] = test system: ragweed (common ragweed, Ambrosia elatior)
How it was run: as §1

[13] = test system: pigweed (Amaranthus retroflexus)
How it was run: as §1

[14] = test system: barnyardgrass (Echinochloa crus-galli)
How it was run: as §1

[15] = Postemergence, 31 g ai/ha, scale 0 to 100 (0 no effect, 100 complete control)
[16] = Postemergence, 62 g ai/ha, 0 to 100 scale (0 no effect, 100 complete control)
[17] = Postemergence, 250 g ai/ha, scale 0 to 100, 0 no effect, 100 complete control, 13 to 15 d
[18] = Preemergence, 31 g ai/ha, scale 0 to 100, 0 is no effect, 100 is complete control
[19] = Preemergence, 62 g ai/ha, scale 0 to 100, 0 is no effect, 100 is complete control
[20] = Preemergence, 125 g ai/ha, scale 0 to 100, 0 is no effect, 100 is complete control
[21] = Preemergence, 250 g ai/ha, scale 0 to 100 (0 no effect, 100 complete control)
[22] = postemergence, 125 g ai/ha, scale 0 to 100, 0 no effect, 100 complete control

COC(=O)Oc1c(Br)nn(C)c(=O)c1-c1c(C)ccc2ccccc12 [Compound 137]
Plant response rating, Foxtail, Giant [1, 15]: 45
Foxtail, Giant plant response rating [1, 16]: 60
Plant response rating, Foxtail, Giant [1, 17]: 95
Plant response rating, Foxtail, Giant [1, 18]: 65
Plant response rating, Foxtail, Giant [1, 19]: 85
Plant response rating, Foxtail, Giant [1, 20]: 95
Foxtail, Giant plant response rating [1, 21]: 100
Foxtail, Giant plant response rating [1, 22]: 80
Plant response rating, Blackgrass [2, 15]: 0
Blackgrass plant response rating [2, 16]: 0
Plant response rating, Blackgrass [2, 17]: 0
Plant response rating, Blackgrass [2, 18]: 30
Plant response rating, Blackgrass [2, 19]: 40
Plant response rating, Blackgrass [2, 20]: 30
Blackgrass plant response rating [2, 21]: 90
Blackgrass plant response rating [2, 22]: 0
Plant response rating, Lambsquarters [3, 15]: 90
Lambsquarters plant response rating [3, 16]: 90
Plant response rating, Lambsquarters [3, 17]: 100
Plant response rating, Lambsquarters [3, 18]: 90
Plant response rating, Lambsquarters [3, 19]: 100
Plant response rating, Lambsquarters [3, 20]: 100
Lambsquarters plant response rating [3, 21]: 95
Lambsquarters plant response rating [3, 22]: 98
Plant response rating, Wheat [4, 15]: 75
Wheat plant response rating [4, 16]: 90
Plant response rating, Wheat [4, 17]: 95
Plant response rating, Wheat [4, 18]: 15
Plant response rating, Wheat [4, 19]: 80
Plant response rating, Wheat [4, 20]: 90
Wheat plant response rating [4, 21]: 90
Wheat plant response rating [4, 22]: 90
Plant response rating, Nutsedge, Yellow [5, 15]: 65
Nutsedge, Yellow plant response rating [5, 16]: 85
Plant response rating, Nutsedge, Yellow [5, 17]: 90
Plant response rating, Nutsedge, Yellow [5, 18]: 55
Plant response rating, Nutsedge, Yellow [5, 19]: 85
Plant response rating, Nutsedge, Yellow [5, 20]: 90
Nutsedge, Yellow plant response rating [5, 21]: 95
Nutsedge, Yellow plant response rating [5, 22]: 85
Plant response rating, Corn (corn (Zea mays); [15]): 5
Corn plant response rating (corn (Zea mays); [16]): 15
Plant response rating, Corn (corn (Zea mays); [17]): 20
Plant response rating, Corn (corn (Zea mays); [18]): 0
Plant response rating, Corn (corn (Zea mays); [19]): 10
Plant response rating, Corn (corn (Zea mays); [20]): 10
Corn plant response rating (corn (Zea mays); [21]): 55
Corn plant response rating (corn (Zea mays); [22]): 10
Plant response rating, Waterhemp [6, 15]: 85
Waterhemp plant response rating [6, 16]: 65
Plant response rating, Waterhemp [6, 17]: 90
Plant response rating, Waterhemp [6, 18]: 85
Plant response rating, Waterhemp [6, 19]: 98
Plant response rating, Waterhemp [6, 20]: 95
Waterhemp plant response rating [6, 21]: 98
Waterhemp plant response rating [6, 22]: 85
Plant response rating, Johnsongrass [7, 15]: 10
Johnsongrass plant response rating [7, 16]: 10
Plant response rating, Johnsongrass [7, 17]: 15
Plant response rating, Johnsongrass [7, 18]: 0
Plant response rating, Johnsongrass [7, 19]: 5
Plant response rating, Johnsongrass [7, 20]: 20
Johnsongrass plant response rating [7, 21]: 20
Johnsongrass plant response rating [7, 22]: 15
Plant response rating, Velvetleaf [8, 15]: 85
Velvetleaf plant response rating [8, 16]: 90
Plant response rating, Velvetleaf [8, 17]: 95
Plant response rating, Velvetleaf [8, 18]: 80
Plant response rating, Velvetleaf [8, 19]: 100
Plant response rating, Velvetleaf [8, 20]: 100
Velvetleaf plant response rating [8, 21]: 100
Velvetleaf plant response rating [8, 22]: 90
Plant response rating, Soybean (soybean (Glycine max); [15]): 10
Soybean plant response rating (soybean (Glycine max); [16]): 10
Plant response rating, Soybean (soybean (Glycine max); [17]): 20
Plant response rating, Soybean (soybean (Glycine max); [18]): 30
Plant response rating, Soybean (soybean (Glycine max); [19]): 20
Plant response rating, Soybean (soybean (Glycine max); [20]): 40
Soybean plant response rating (soybean (Glycine max); [21]): 30
Soybean plant response rating (soybean (Glycine max); [22]): 15
Plant response rating, Ryegrass, Italian [9, 15]: 10
Ryegrass, Italian plant response rating [9, 16]: 30
Plant response rating, Ryegrass, Italian [9, 17]: 60
Plant response rating, Ryegrass, Italian [9, 18]: 85
Plant response rating, Ryegrass, Italian [9, 19]: 95
Plant response rating, Ryegrass, Italian [9, 20]: 100
Ryegrass, Italian plant response rating [9, 21]: 100
Ryegrass, Italian plant response rating [9, 22]: 30
Plant response rating, Morningglory [10, 15]: 100
Morningglory plant response rating [10, 16]: 98
Plant response rating, Morningglory [10, 17]: 100
Plant response rating, Morningglory [10, 18]: 70
Plant response rating, Morningglory [10, 19]: 85
Plant response rating, Morningglory [10, 20]: 90
Morningglory plant response rating [10, 21]: 98
Morningglory plant response rating [10, 22]: 100
Plant response rating, Galium [11, 15]: 85
Galium plant response rating [11, 16]: 90
Plant response rating, Galium [11, 17]: 95
Plant response rating, Galium [11, 18]: 98
Plant response rating, Galium [11, 19]: 98
Plant response rating, Galium [11, 20]: 98
Galium plant response rating [11, 21]: 100
Galium plant response rating [11, 22]: 90
Plant response rating, Ragweed [12, 15]: 10
Ragweed plant response rating [12, 16]: 20
Plant response rating, Ragweed [12, 17]: 40
Plant response rating, Ragweed [12, 18]: 80
Plant response rating, Ragweed [12, 19]: 95
Plant response rating, Ragweed [12, 20]: 95
Ragweed plant response rating [12, 21]: 100
Ragweed plant response rating [12, 22]: 30
Plant response rating, Pigweed [13, 15]: 90
Pigweed plant response rating [13, 16]: 98
Plant response rating, Pigweed [13, 17]: 100
Plant response rating, Pigweed [13, 18]: 100
Plant response rating, Pigweed [13, 19]: 100
Plant response rating, Pigweed [13, 20]: 100
Pigweed plant response rating [13, 21]: 100
Pigweed plant response rating [13, 22]: 98
Plant response rating, Barnyardgrass [14, 15]: 25
Barnyardgrass plant response rating [14, 16]: 40
Plant response rating, Barnyardgrass ([14]; Postemergence, 125 g ai/ha, scale 0 to 100, 0 is no effect, 100 is complete control): 50
Plant response rating, Barnyardgrass [14, 17]: 65
Plant response rating, Barnyardgrass [14, 18]: 35
Plant response rating, Barnyardgrass [14, 19]: 85
Plant response rating, Barnyardgrass [14, 20]: 90
Barnyardgrass plant response rating [14, 21]: 100
